Data: PMC2890073 (Immunogenetics, 2010)
Where no end group is shown, it is not given here.

Assays:
HLA-B*0702 = HLA-B*0702 (Homo sapiens, UniProt P01889); experiment: HLA-B*0702 peptide binding assay
HLA-B*5301 = HLA-B*5301 (Homo sapiens, UniProt P01889, A329T/A93T/A95T/C349S/D201E/D98Y/E176V/E187L/E204Q/E69T/G107R/I218V/K202T/L105A/L119I/N104I/Q94N/R106L/R155S/R180L/S101N/S121R/S35A/S48A/T118I/V127L/V306I/V36M/Y140S/Y91F); experiment: HLA-B*5301 peptide binding assay
HLA-B*3501 = HLA-B*3501 (Homo sapiens, UniProt P01889, A329T/A93T/A95T/C349S/D201E/D98Y/E176V/E187L/E204Q/E69T/I218V/K202T/L119I/Q94N/R155S/R180L/S121R/S35A/S48A/T118I/V127L/V306I/V36M/Y140S/Y91F); experiment: HLA-B*3501 peptide binding assay

CC(C)C[C@H](NC(=O)[C@@H]1CCCN1C(=O)[C@@H](NC(=O)[C@H](CCC(N)=O)NC(=O)[C@@H]1CCCN1C(=O)[C@@H](NC(=O)[C@@H](NC(=O)[C@@H]1CCCN1C(=O)[C@@H](N)Cc1ccccc1)C(C)C)[C@@H](C)O)C(C)C)C(=O)O
IC50 (HLA-B*0702): 1 nM

CC(C)C[C@H](NC(=O)[C@@H]1CCCN1C(=O)[C@@H](N)Cc1ccc(O)cc1)C(=O)N[C@H](C(=O)N[C@@H](Cc1ccccc1)C(=O)NCC(=O)N[C@@H](Cc1c[nH]c2ccccc12)C(=O)N[C@@H](CS)C(=O)N[C@@H](Cc1ccccc1)C(=O)O)[C@@H](C)O
IC50 (HLA-B*5301): 9.5 nM

HPDIVIYQY
IC50 (HLA-B*3501): 7.9 nM
